Among the test systems are BT-549 breast; SK-MEL-2 melanoma; CCRF-CEM leukemia; SF-295 CNS; RXF 393 renal; HCC-2998 colon; UO-31 renal; RPMI-8226 leukemia; HT29 colon; 786-0 renal.
Holding throughout (test): NCI tumour cell line growth inhibition, 48 h

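Five concentrations, 48 hours, 96-well plates. The concentration for 50% growth inhibition is given as GI50. Definition used: TGI = concentration required for complete inhibition of growth.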 Bounds are passed on as bounds.

As for `Cn1cc(C2=C(c3cccc(NCC(O)CO)c3)C(=O)NC2=O)c2cc(Cl)ccc21` (stereo not drawn), the GI50 in the test with BT-549 breast is 3.82 µM; in the test with SK-MEL-2 melanoma, 3.58 µM; with CCRF-CEM leukemia, 3.92 µM; in the test on SF-295 CNS, 0.237 µM; with RXF 393 renal it was 2.82 µM; in the test with HCC-2998 colon, 6.56 µM. For the same compound, the GI50 with UO-31 renal was 5.99 µM; in the test with RPMI-8226 leukemia, 5.56 µM; in the test with HT29 colon it was 2.78 µM; in the test on 786-0 renal, 4.31 µM. Moreover, the TGI in the test with BT-549 breast was 9.3 µM; in the test with SK-MEL-2 melanoma, 10 µM; in the test on CCRF-CEM leukemia it was over 21.8 µM; in the test on SF-295 CNS, 8.94 µM; with RXF 393 renal, 7.18 µM; in the test with HCC-2998 colon it was 17.9 µM. Also, the TGI worked out at 17.6 µM in the test with UO-31 renal, 13.9 µM in the test on RPMI-8226 leukemia, 11.8 µM in the test with HT29 colon and 16.5 µM with 786-0 renal.

For the compound `Cn1c2ccccc2c(=S)c2cc(NC(=O)CCCCC(=O)Nc3ccc4c(c3)c(=S)c3ccccc3n4C)ccc21`, the TGI with BT-549 breast, in the test on SK-MEL-2 melanoma, in the test on CCRF-CEM leukemia, with SF-295 CNS, with RXF 393 renal and with HCC-2998 colon was over 100 µM throughout. Moreover, the TGI in the test with UO-31 renal, in the test on RPMI-8226 leukemia, in the test on HT29 colon and in the test with 786-0 renal was over 100 µM in each case.

For `N=C(N)c1ccc(-c2ccc(-c3ccco3)o2)cc1F`, the GI50 in the test on BT-549 breast is 2.19 µM; with SK-MEL-2 melanoma, 2.09 µM; in the test on CCRF-CEM leukemia, 2.77 µM; in the test on SF-295 CNS it was 1.67 µM; with RXF 393 renal it was 1.62 µM; with HCC-2998 colon it was 1.94 µM. The GI50 in the test with UO-31 renal is 1.43 µM; in the test on RPMI-8226 leukemia it was 1.95 µM; in the test with HT29 colon, 1.29 µM; in the test with 786-0 renal, 1.74 µM. The TGI was 5.11 µM in the test with BT-549 breast; 3.72 µM in the test on SK-MEL-2 melanoma; 8.16 µM in the test on CCRF-CEM leukemia; 3.81 µM in the test with SF-295 CNS; 3.69 µM with RXF 393 renal; 3.8 µM with HCC-2998 colon. The TGI in the test on UO-31 renal was determined as 3.14 µM; with RPMI-8226 leukemia, 4.68 µM; with HT29 colon it was 3.3 µM; in the test with 786-0 renal, 4.08 µM.

Take `COc1cccc(-c2cc(NCc3ccc4c(c3)OCO4)nc(N)n2)c1`: the GI50 was 0.149 µM in the test on BT-549 breast; 0.219 µM in the test on SK-MEL-2 melanoma; 0.0762 µM with CCRF-CEM leukemia; 0.0597 µM with SF-295 CNS; 0.11 µM with RXF 393 renal; 0.137 µM in the test on HCC-2998 colon. Further, the GI50 in the test with UO-31 renal is 0.104 µM; in the test with RPMI-8226 leukemia it was 0.172 µM; with HT29 colon, 0.0423 µM; with 786-0 renal, 0.0819 µM. For the same compound, the TGI was 5.15 µM in the test on BT-549 breast; 17.9 µM with SK-MEL-2 melanoma; over 100 µM with CCRF-CEM leukemia; 14.4 µM in the test with SF-295 CNS; 17.2 µM with RXF 393 renal; 2.9 µM with HCC-2998 colon. The TGI in the test with UO-31 renal is 17 µM; with RPMI-8226 leukemia, 34.2 µM; with HT29 colon it was 6.84 µM; with 786-0 renal, 12.9 µM.

Take `C(#Cc1ccccc1C#Cc1ccccn1)c1ccc(OCCCCCCOc2ccc(C#Cc3ccccc3C#Cc3ccccn3)cc2)cc1`: the GI50 with BT-549 breast was 4.39 µM; in the test with SK-MEL-2 melanoma, 1.87 µM; in the test with CCRF-CEM leukemia, 0.0276 µM; in the test with SF-295 CNS, 1.32 µM; with RXF 393 renal, 6.91 µM; in the test on HCC-2998 colon it was 6.83 µM. Also, the GI50 in the test with UO-31 renal is 2.02 µM; with RPMI-8226 leukemia it was 0.387 µM; with HT29 colon, 8.16 µM; with 786-0 renal, 5.55 µM. In addition, the TGI in the test with BT-549 breast was 12.1 µM; in the test with SK-MEL-2 melanoma, 11.1 µM; with CCRF-CEM leukemia it was 0.151 µM; in the test on SF-295 CNS it was 5.08 µM; in the test on RXF 393 renal, 13.6 µM; in the test on HCC-2998 colon, 13.3 µM. Besides, the TGI with UO-31 renal came out at 21.4 µM; in the test with RPMI-8226 leukemia it was 10.1 µM; in the test on HT29 colon, 14.9 µM; in the test with 786-0 renal, 28.8 µM.

For the compound `O=S(=O)(c1ccccc1)C1CN(Cc2ccccc2)CCN(Cc2ccccc2)C1`, the TGI in the test on BT-549 breast was over 100 µM; in the test on SK-MEL-2 melanoma, over 100 µM; with CCRF-CEM leukemia it was over 100 µM; in the test with SF-295 CNS it was over 100 µM; with RXF 393 renal, 43.3 µM; in the test on HCC-2998 colon it was over 100 µM. Besides, the TGI was 77.3 µM with UO-31 renal, 53.4 µM in the test on RPMI-8226 leukemia, over 100 µM in the test with HT29 colon and over 100 µM with 786-0 renal.

Regarding `CCCNNC(=O)c1ccc(CNC(=O)/C=C/c2ccccc2)cc1`, the GI50 in the test on BT-549 breast was 1.43 µM; with SK-MEL-2 melanoma, 0.199 µM; with CCRF-CEM leukemia, 0.115 µM; in the test on SF-295 CNS, 0.164 µM; with RXF 393 renal it was 0.18 µM; in the test with HCC-2998 colon it was 0.186 µM. The GI50 is 0.0515 µM with UO-31 renal, 0.101 µM in the test with RPMI-8226 leukemia, 0.12 µM in the test on HT29 colon and 0.314 µM in the test on 786-0 renal. Further, the TGI in the test on BT-549 breast is over 100 µM; with CCRF-CEM leukemia it was over 100 µM; in the test on SF-295 CNS, 0.596 µM; with RXF 393 renal it was 0.501 µM; in the test with HCC-2998 colon, 0.653 µM; in the test on UO-31 renal it was 0.771 µM. Besides, the TGI in the test with HT29 colon and in the test on 786-0 renal was over 100 µM each time.

Turning to `COC1(C)Cc2c(c(C)c(O)c3c2C(=O)C=C(Cl)C3=O)O1` (stereo not drawn), the TGI in the test on BT-549 breast is over 100 µM; with SK-MEL-2 melanoma it was over 100 µM; with CCRF-CEM leukemia it was 26.3 µM; in the test on SF-295 CNS, over 100 µM; in the test with RXF 393 renal it was 31.8 µM; with HCC-2998 colon, over 100 µM. Besides, the TGI in the test with UO-31 renal is over 100 µM; in the test on RPMI-8226 leukemia it was 52.1 µM; with HT29 colon, 67 µM; in the test with 786-0 renal, over 100 µM.

For `O=CNc1ccc2c(c1)Cc1cc([N+](=O)[O-])ccc1-2`, the GI50 with BT-549 breast was 2.93 µM; in the test on SK-MEL-2 melanoma it was 3.58 µM; in the test on CCRF-CEM leukemia it was 1.31 µM; in the test on SF-295 CNS, 0.981 µM; with RXF 393 renal, 2.33 µM; in the test with HCC-2998 colon, 1.3 µM. Besides, the GI50 was 3.38 µM in the test on UO-31 renal, over 100 µM in the test on RPMI-8226 leukemia, 4.5 µM in the test with HT29 colon and 5.32 µM with 786-0 renal. Besides, the TGI in the test on BT-549 breast, in the test on SK-MEL-2 melanoma, in the test with CCRF-CEM leukemia, in the test with SF-295 CNS, with RXF 393 renal and in the test with HCC-2998 colon was over 100 µM throughout. The TGI in the test on UO-31 renal, in the test with RPMI-8226 leukemia, in the test on HT29 colon and in the test on 786-0 renal was over 100 µM throughout.

The values are drawn from PubChem BioAssay (NCI).
